Structures are written as SMILES. Activity calls are given as the source filed them.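 The calls were made as follows: active = fitted curve reaches 40% activation below the top valid tested dose, in every test run; inconclusive = test runs disagree on the call; inactive = the rest, including effects opposite to the expected direction.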

The first test in a line: endothelial E-selectin upregulation by compounds – imaging, HUVEC, cherry-picked samples, dose response (AID 977605).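 Also: signal is the share of imaged cells scored positive for E-selectin.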 Conditions: HUVEC E-selectin immunostaining, at 16 µM (top of the series), percent of TNF-alpha response over vehicle.
As for `C[C@H](CO)N1C[C@H](C)[C@@H](CN(C)S(=O)(=O)c2cn(C)cn2)Oc2ccc(NC(=O)CCCCCC(=O)Nc3ccccc3N)cc2C1=O`, the activation was -0.01% (inactive).

The test is the same for the next values; noted with them: HUVEC E-selectin immunostaining, at 19.5 µM (top of the series), percent of TNF-alpha response over vehicle.
Regarding `C[C@@H]1CCCCO[C@@H](CN(C)S(C)(=O)=O)[C@@H](C)CN([C@H](C)CO)C(=O)c2cc(NC(=O)CCCN(C)C)ccc2O1`, the activation was -0.145% (inactive).
On the same count and under the same terms, for `COc1ccc(S(=O)(=O)Nc2ccc3c(c2)C(=O)N([C@@H](C)CO)C[C@H](C)[C@@H](CN(C)Cc2ccc(Cl)c(Cl)c2)O3)cc1` the value was -0.097% (inactive); for `CCCC#Cc1ccc2c(c1)O[C@@H](CN(C)S(=O)(=O)c1cccc(OC)c1)[C@@H](C)CN([C@@H](C)CO)S2(=O)=O`, 0.13% (inactive).
Still for that read-out and setting: the same measure for `Cc1noc(C)c1S(=O)(=O)N(C)C[C@H]1Oc2ccc(NC(=O)C3CC3)cc2CC(=O)N([C@@H](C)CO)C[C@@H]1C`: 32.2% (inactive).
In the case of `C[C@H]1CN([C@@H](C)CO)C(=O)Cc2cc(NS(=O)(=O)c3ccc(F)cc3)ccc2O[C@@H]1CN(C)S(=O)(=O)c1ccc(Cl)cc1`, the activation is -0.047% (inactive).
For the compound `C[C@@H]1CN([C@H](C)CO)C(=O)c2cc(N(C)C)ccc2O[C@H]1CN(C)S(=O)(=O)c1cn(C)cn1`, the activation is -0.007% (inactive).
Still for that read-out and setting: the same measure for `CCC(=O)c1ccc(OCC(=O)NNC(=O)c2cc(C)oc2C)cc1`: -0.03% (inactive); for `COCC(=O)N(C)C[C@@H]1Oc2cc(-c3ccc(F)cc3)ccc2S(=O)(=O)N([C@H](C)CO)C[C@H]1C`: -0.159% (inactive); for `Cc1cc(NC(=O)CCC(=O)N(c2ccccc2)C(C(=O)NC2CCCC2)c2ccc(F)cc2)no1` (stereo not drawn): 0.168% (inactive).
`c1ccc(-c2ccccc2OCCOCCN2CCNCC2)cc1`: the activation was 0.084% (inactive).
Same read-out and setting: the same measure for `CC1CCCC(C)N1C(=O)CSc1nc2c(c(=O)n(C)c(=O)n2C)n1C` (stereo not drawn): -0.005% (inactive); for `Cc1ccsc1CN(C)Cc1nc(C2CC2)no1`: 1.75% (inactive); for `O=C(NC1CCCC1)C(c1ccc(F)cc1)N(C(=O)c1csnn1)c1ccccc1` (stereo not drawn): 0.654% (inactive).
Still for that read-out and setting: the same measure for `C[C@@H]1CN([C@@H](C)CO)C(=O)Cc2cc(NC(=O)C3CC3)ccc2O[C@@H]1CN(C)C(=O)Nc1ccccc1`: 0.276% (inactive); for `C[C@H]1CN([C@@H](C)CO)C(=O)c2cc(NC(=O)NC3CCCCC3)ccc2O[C@@H]1CN(C)S(=O)(=O)c1ccc(Cl)cc1`: 2.58% (inactive).
The same measure, in the same setting: the same measure for `Cc1ccc(S(=O)(=O)Nc2ccc3c(c2)C(=O)N([C@H](C)CO)C[C@H](C)[C@H](CN(C)C(=O)Nc2cccc4ccccc24)OCCCC[C@@H](C)O3)cc1`: 7.64% (inactive); for `C[C@H]1CN([C@@H](C)CO)C(=O)c2cccc(NC(=O)c3nc4ccccc4s3)c2O[C@@H]1CN(C)Cc1ccc(C(F)(F)F)cc1`: -0.231% (inactive).
For `Oc1cccc(Oc2ncc(C(F)(F)F)cc2Cl)c1`, the activation is -0.09% (inactive).
On the same count and under the same terms, for `CN(C1CCCCC1)S(=O)(=O)c1cn(C)c(=O)n(C)c1=O` the value was -0.175% (inactive).
For `C[C@@H]1CN([C@H](C)CO)C(=O)c2cc(NC(=O)CCN3CCOCC3)ccc2O[C@H]1CN(C)C(=O)Nc1ccc(C(F)(F)F)cc1`, the activation is -0.038% (inactive).
On the same count and under the same terms, the same measure for `COc1cccc(NC(=O)c2ccc(OC(F)(F)F)cc2)c1`: 0.305% (inactive); for `CCc1nc(=O)c(-c2ccccc2)c(C)n1-c1ccccc1`: -0.02% (inactive); for `C[C@H](CO)N1C[C@H](C)[C@H](CN(C)Cc2ccc(C(F)(F)F)cc2)Oc2ccc(NS(=O)(=O)c3cn(C)cn3)cc2CC1=O`: -0.066% (inactive).
Same read-out and setting: for `C[C@@H]1CN([C@@H](C)CO)C(=O)c2cc(NS(=O)(=O)c3cccs3)ccc2O[C@H]1CN(C)C(=O)Nc1ccc2c(c1)OCO2` the value was -0.287% (inactive); for `COc1ccc(S(=O)(=O)Nc2cccc3c2O[C@H](CN(C)C(=O)Nc2cccc4ccccc24)[C@@H](C)CN([C@H](C)CO)C3=O)cc1`, -0.185% (inactive); for `CN(Cc1ccsc1)C(=O)CCc1nnc(CCCc2ccccc2)o1`, 1.14% (inactive).
As for `CC1CC(=O)Nc2ccccc2N1S(=O)(=O)c1cccs1` (stereo not drawn), the activation was -0.177% (inactive).
Turning to `C[C@H](CO)N1C[C@H](C)[C@H](CN(C)S(=O)(=O)c2cccs2)Oc2c(NC(=O)Nc3ccccc3)cccc2C1=O`, the activation is 1% (inactive).
Same read-out and setting: for `CN(CC(=O)Nc1ccc(Cl)c(Cl)c1)C1CCCCC1` the value was -0.064% (inactive); for `CCCC#Cc1ccc2c(c1)O[C@@H](CN(C)C(=O)c1ccncc1)[C@H](C)CN([C@@H](C)CO)S2(=O)=O`, -0.24% (inactive).
Regarding `O=S(=O)(NCc1csc(-c2cccs2)n1)c1ccc(Cl)cc1`, the activation was 0.045% (inactive).
Regarding `C[C@@H]1CN([C@H](C)CO)C(=O)c2cc(NC(=O)Cn3cnnn3)ccc2O[C@H]1CN(C)S(=O)(=O)c1ccccc1`, the activation is 0% (inactive).
Still for that read-out and setting: the same measure for `Cc1noc(C)c1COc1ccc(C(=O)N2CCC(C)CC2)cc1`: 8.94% (inactive); for `CC(C)NC(=O)N(C)C[C@H]1Oc2ccc(NC(=O)CCN3CCOCC3)cc2C(=O)N([C@@H](C)CO)C[C@H]1C`: -0.017% (inactive).
On the same count and under the same terms, the same measure for `C[C@H](CO)N1C[C@H](C)[C@H](CN(C)C(=O)Nc2ccccc2)Oc2c(NS(=O)(=O)c3cccs3)cccc2C1=O`: -0.044% (inactive); for `CCCCCCOc1ccc(C(CC(N)=O)C(=O)O)cc1` (stereo not drawn): -0.269% (inactive); for `C[C@@H]1CN([C@@H](C)CO)C(=O)Cc2cc(NC(=O)Cn3cnnn3)ccc2O[C@H]1CN(C)Cc1ccc(Oc2ccccc2)cc1`: 0.416% (inactive).
Same read-out and setting: the same measure for `N#Cc1ccc(-c2csc(NC3=NCCCCC3)n2)cc1`: -0.002% (inactive).
Turning to `CCOC(=O)c1sc(NC(=O)CN2C(=O)C3CC=CCC3C2=O)nc1C` (stereo not drawn), the activation was 0.503% (inactive).
As to `COC(=O)C[C@@H]1CC[C@@H]2[C@H](COc3ccc(NC(=O)Nc4cccc(F)c4)cc3C(=O)N2C)O1`, the activation is -0.161% (inactive).
In the case of `COc1ccc(S(=O)(=O)Nc2ccc3c(c2)CC(=O)N([C@H](C)CO)C[C@H](C)[C@H](CN(C)C(=O)NC2CCCCC2)O3)cc1`, the activation is -0.057% (inactive).
The same measure, in the same setting: the same measure for `C[C@@H]1CN([C@H](C)CO)C(=O)c2cc(NC(=O)NC3CCCCC3)ccc2O[C@H]1CN(C)S(=O)(=O)c1ccc(Cl)cc1`: 1.03% (inactive); for `COc1cccc(NC(=O)C2C3C=CC4(O3)C2C(=O)N(CCCN2CCCCC2)C4C(=O)NC2CCCCC2)c1` (stereo not drawn): 1.56% (inactive).
On the same count and under the same terms, the same measure for `CO[C@@H]1CN(C)C(=O)c2cc(NS(C)(=O)=O)ccc2OC[C@@H](C)N(C(=O)c2ccc3c(c2)OCO3)C[C@@H]1C`: -0.203% (inactive).
Same read-out and setting: the same measure for `C[C@@H]1CN([C@H](C)CO)C(=O)Cc2cc(NC(=O)Nc3ccc(F)cc3)ccc2O[C@H]1CN(C)S(=O)(=O)c1ccc(Cl)cc1`: 0.054% (inactive); for `COc1ccccc1N(CC(=O)NCCSc1ccccn1)S(=O)(=O)c1ccccc1`: -0.052% (inactive).
Take `CC(C)c1ccc(C(=O)Nc2nnc(S(=O)(=O)N3CCCCC3)s2)cc1`: the activation is -0.055% (inactive).
As for `CCNS(=O)(=O)c1ccc(CCC(=O)N2CCN(c3ccc(OC)cc3)CC2)cc1`, the activation is -0.027% (inactive).
On the same count and under the same terms, the same measure for `C[C@@H]1CN([C@H](C)CO)C(=O)c2cc(NC(=O)CCN3CCOCC3)ccc2O[C@@H]1CN(C)Cc1ccc(C(F)(F)F)cc1`: -0.028% (inactive); for `C[C@@H]1CN([C@@H](C)CO)C(=O)c2cc(NC(=O)Cc3ccccc3)ccc2O[C@@H]1CN(C)C(=O)Nc1cccc2ccccc12`: -0.101% (inactive).
Same read-out and setting: for `C[C@@H]1CN([C@@H](C)CO)C(=O)Cc2cc(NC(=O)c3ccncc3)ccc2O[C@@H]1CN(C)S(C)(=O)=O` the value was 4.61% (inactive).
Still for that read-out and setting: the same measure for `C[C@@H]1CN([C@@H](C)CO)C(=O)Cc2cc(NC(=O)Nc3ccc(F)cc3)ccc2O[C@H]1CN(C)C(=O)Nc1ccc(C(F)(F)F)cc1`: -0.14% (inactive); for `C[C@@H]1CN([C@H](C)CO)C(=O)c2cccc(NS(=O)(=O)c3cn(C)cn3)c2O[C@@H]1CN(C)Cc1ccc(Cl)c(Cl)c1`: 0.02% (inactive).
On to `C[C@@H]1CN([C@@H](C)CO)C(=O)Cc2cc(NS(=O)(=O)c3ccc(F)cc3)ccc2O[C@H]1CN(C)S(=O)(=O)c1ccc(Cl)cc1`, for which the activation is -0.127% (inactive).
As to `O=C(NCc1ccc(F)cc1)c1cc(C2CCCCN2C(=O)CCCc2ccccc2)on1` (stereo not drawn), the activation was -0.164% (inactive).

Still in this test, the particulars now being: HUVEC E-selectin immunostaining, at 21 µM (top of the series), percent of TNF-alpha response over vehicle.
`CC(C)NC(=O)N(C)C[C@H]1Oc2c(NC(=O)CCCCCC(=O)Nc3ccccc3N)cccc2C(=O)N([C@@H](C)CO)C[C@H]1C`: the activation is -0.093% (inactive).
Same read-out and setting: the same measure for `C[C@@H]1CN([C@H](C)CO)C(=O)c2cc(NS(=O)(=O)c3cn(C)cn3)ccc2O[C@H]1CN(C)Cc1ccncc1`: -0.069% (inactive); for `Cc1noc(C)c1NC(=O)Nc1cccc2c1O[C@@H](CN(C)CC1CCCCC1)[C@H](C)CN([C@@H](C)CO)C2=O`: -0.074% (inactive); for `C[C@@H]1CN([C@H](C)CO)C(=O)c2cc(NS(=O)(=O)c3cn(C)cn3)ccc2O[C@@H]1CN(C)C(=O)Nc1ccc2c(c1)OCO2`: -0.098% (inactive).
Still for that read-out and setting: the same measure for `Cc1noc(C)c1NC(=O)Nc1ccc2c(c1)CC(=O)N([C@@H](C)CO)C[C@@H](C)[C@@H](CN(C)Cc1ccc(Cl)c(Cl)c1)O2`: 3.17% (inactive).
On to `C[C@H]1CN([C@@H](C)CO)C(=O)Cc2cc(NC(=O)Nc3ccc4c(c3)OCO4)ccc2O[C@H]1CN(C)S(=O)(=O)c1cn(C)cn1`, for which the activation is -0.009% (inactive).
The same measure, in the same setting: for `C[C@@H]1CN([C@H](C)CO)C(=O)c2cccc(NC(=O)C3CCOCC3)c2O[C@H]1CN(C)C(=O)Nc1ccccc1` the value was -0.271% (inactive).

The values are drawn from PubChem BioAssay AID977605 (Broad Institute, 2014).
